Data: PubChem BioAssay (NCI)
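Interpolation was linear, between the two tested concentrations surrounding the appropriate level; five concentrations were tested over 48 hours in 96-well plates. GI50 marks 50% less growth. Definition used: TGI = concentration required for complete inhibition of growth.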

What was measured:
Assay in all cases: DTP human tumour cell line panel, 48 h
[1] = tested on: SNB-75 CNS
[2] = tested on: TK-10 renal
[3] = tested on: SR leukemia
[4] = tested on: UO-31 renal
[5] = tested on: MDA-MB-231 breast
[6] = tested on: RXF 393 renal
[7] = tested on: U251 CNS
[8] = tested on: CAKI-1 renal
[9] = tested on: HS 578T breast
[10] = tested on: OVCAR-3 ovarian
[11] = tested on: LOX IMVI melanoma
[12] = tested on: UACC-62 melanoma
[13] = tested on: NCI-H522 lung
[14] = tested on: HT29 colon
[15] = tested on: PC-3 prostate
[16] = tested on: RPMI-8226 leukemia
[17] = tested on: UACC-257 melanoma
[18] = tested on: MDA-MB-435
[19] = tested on: HCT-116 colon
[20] = tested on: SN12C renal
[21] = tested on: ACHN renal
[22] = tested on: SF-268 CNS
[23] = tested on: M14 melanoma
[24] = tested on: KM12 colon
[25] = tested on: HOP-92 NSCLC
[26] = tested on: NCI/ADR-RES ovarian
[27] = tested on: OVCAR-8 ovarian
[28] = tested on: NCI-H460 lung
[29] = tested on: IGROV1 ovarian
[30] = tested on: CCRF-CEM leukemia
[31] = tested on: HOP-62 NSCLC
[32] = tested on: SK-MEL-2 melanoma
[33] = tested on: T-47D breast
[34] = tested on: SK-MEL-5 melanoma
[35] = tested on: SK-MEL-28 melanoma
[36] = tested on: 786-0 renal
[37] = tested on: MALME-3M melanoma
[38] = tested on: SW-620 colon
[39] = tested on: MOLT-4 leukemia
[40] = tested on: OVCAR-4 ovarian
[41] = tested on: SF-295 CNS
[42] = tested on: SK-OV-3 ovarian
[43] = tested on: SF-539 CNS
[44] = tested on: K-562 leukemia
[45] = tested on: DU-145 prostate
[46] = tested on: COLO 205 colon
[47] = tested on: NCI-H23 lung
[48] = tested on: HCT-15 colon
[49] = tested on: OVCAR-5 ovarian
[50] = tested on: HL-60(TB) leukemia
[51] = tested on: EKVX NSCLC
[52] = tested on: A498 renal
[53] = tested on: SNB-19 CNS
[54] = tested on: MCF7 breast
[55] = tested on: NCI-H226 lung
[56] = tested on: BT-549 breast
[57] = tested on: A549 NSCLC
[58] = tested on: HCC-2998 colon

`O=C1/C(=C\c2ccc(Cl)cc2)CCOc2c1ccc1ccccc21` was tested, and the GI50 [1] was 34.6 µM, the TGI [1] was over 100 µM and the GI50 [2] was 27.6 µM. It also gave a TGI [2] of 72.3 µM, a GI50 [3] of 11.9 µM and a TGI [3] of over 100 µM. It also gave a GI50 [4] of 35.4 µM, a TGI [4] of over 100 µM and a GI50 [5] of 18.6 µM. It also gave a TGI [5] of 57 µM, a GI50 [6] of 22.4 µM and a TGI [6] of 63.6 µM. It also gave a GI50 [7] of 20.3 µM, a TGI [7] of 58.6 µM and a GI50 [8] of 31.7 µM. It also gave a TGI [8] of 66 µM, a GI50 [9] of 46.5 µM and a TGI [9] of over 100 µM. It also gave a GI50 [10] of 39.4 µM, a TGI [10] of 87.6 µM and a GI50 [11] of 18.6 µM. The TGI [11] was 42.3 µM, the GI50 [12] was 18.7 µM and the TGI [12] was 47 µM. For the same compound, the GI50 [13] was 30.1 µM, the TGI [13] was over 100 µM and the GI50 [14] was 22.6 µM. For the same compound, the TGI [14] was 72 µM, the GI50 [15] was 43.5 µM and the TGI [15] was over 100 µM. It also gave a GI50 [16] of 14 µM, a TGI [16] of 55.5 µM and a GI50 [17] of 29.8 µM. For the same compound, the TGI [17] was 83.3 µM, the GI50 [18] was 23.2 µM and the TGI [18] was over 100 µM. It also gave a GI50 [19] of 35 µM, a TGI [19] of over 100 µM and a GI50 [20] of 18.5 µM. For the same compound, the TGI [20] was 49.6 µM, the GI50 [21] was 20.4 µM and the TGI [21] was 42.9 µM. It also gave a GI50 [22] of 24.2 µM, a TGI [22] of 83.9 µM and a GI50 [23] of 36.3 µM. The TGI [23] was over 100 µM, the GI50 [24] was 31.8 µM and the TGI [24] was over 100 µM. For the same compound, the GI50 [25] was 17.8 µM, the TGI [25] was 63.4 µM and the GI50 [26] was 19.6 µM. For the same compound, the TGI [26] was 62.8 µM, the GI50 [27] was 28.1 µM and the TGI [27] was over 100 µM. For the same compound, the GI50 [28] was 21.4 µM, the TGI [28] was 76.4 µM and the GI50 [29] was 55.3 µM. For the same compound, the TGI [29] was over 100 µM, the GI50 [30] was 28.8 µM and the TGI [30] was over 100 µM. It also gave a GI50 [31] of 25.8 µM, a TGI [31] of 63.6 µM and a GI50 [32] of 87.5 µM. For the same compound, the TGI [32] was over 100 µM, the GI50 [33] was 19 µM and the TGI [33] was 42.2 µM. The GI50 [34] was 20.6 µM, the TGI [34] was 45.8 µM and the GI50 [35] was 19 µM. The TGI [35] was 38.2 µM, the GI50 [36] was 24 µM and the TGI [36] was 55.7 µM. It also gave a GI50 [37] of 25.9 µM, a TGI [37] of 57.9 µM and a GI50 [38] of 38.5 µM. For the same compound, the TGI [38] was over 100 µM, the GI50 [39] was 11.7 µM and the TGI [39] was over 100 µM. The GI50 [40] was 36.7 µM, the TGI [40] was over 100 µM and the GI50 [41] was 33.5 µM. It also gave a TGI [41] of over 100 µM, a GI50 [42] of 42.6 µM and a TGI [42] of over 100 µM. It also gave a GI50 [43] of 12.2 µM, a TGI [43] of 29.9 µM and a GI50 [44] of 22.5 µM. The TGI [44] was over 100 µM, the GI50 [45] was 19.7 µM and the TGI [45] was 61.7 µM. For the same compound, the GI50 [46] was 22 µM, the TGI [46] was 50.1 µM and the GI50 [47] was 21.6 µM. For the same compound, the TGI [47] was 56.7 µM, the GI50 [48] was 14.9 µM and the TGI [48] was 62.4 µM. For the same compound, the GI50 [49] was 26.1 µM, the TGI [49] was 78.8 µM and the GI50 [50] was 46.4 µM. The TGI [50] was over 100 µM, the GI50 [51] was 16.7 µM and the TGI [51] was 47.6 µM. For the same compound, the GI50 [52] was 36.4 µM, the TGI [52] was 61.8 µM and the GI50 [53] was 23.9 µM. It also gave a TGI [53] of 72.3 µM, a GI50 [54] of 19.4 µM and a TGI [54] of over 100 µM. It also gave a GI50 [55] of 11.2 µM, a TGI [55] of 27.1 µM and a GI50 [56] of 18.8 µM. It also gave a TGI [56] of 47 µM, a GI50 [57] of 42.8 µM and a TGI [57] of over 100 µM.

`CC(=O)N1C(Nc2ccccc2)CCN1c1ccccc1` (stereo not drawn) was tested, and the TGI [1] was over 10 µM, the TGI [2] was over 10 µM and the TGI [3] was over 10 µM. For the same compound, the TGI [4] was over 10 µM, the TGI [5] was over 10 µM and the TGI [6] was over 10 µM. For the same compound, the TGI [8] was over 10 µM, the TGI [9] was over 10 µM and the TGI [10] was over 10 µM. For the same compound, the TGI [11] was over 10 µM, the TGI [13] was over 10 µM and the TGI [14] was over 10 µM. The TGI [15] was over 10 µM, the TGI [16] was over 10 µM and the TGI [17] was over 10 µM. The TGI [18] was over 10 µM, the TGI [19] was over 10 µM and the TGI [20] was over 10 µM. For the same compound, the TGI [21] was over 10 µM, the TGI [22] was over 10 µM and the TGI [23] was over 10 µM. The TGI [25] was over 10 µM, the TGI [26] was over 10 µM and the TGI [27] was over 10 µM. The TGI [28] was over 10 µM, the TGI [29] was over 10 µM and the TGI [30] was over 10 µM. The TGI [31] was over 10 µM, the TGI [32] was over 10 µM and the TGI [58] was over 10 µM. For the same compound, the TGI [33] was over 10 µM, the TGI [34] was over 10 µM and the TGI [35] was over 10 µM. It also gave a TGI [36] of over 10 µM, a TGI [37] of over 10 µM and a TGI [38] of over 10 µM. For the same compound, the TGI [39] was over 10 µM, the TGI [40] was over 10 µM and the TGI [41] was over 10 µM. The TGI [42] was over 10 µM, the TGI [43] was over 10 µM and the TGI [44] was over 10 µM. The TGI [45] was over 10 µM, the TGI [46] was over 10 µM and the TGI [47] was over 10 µM. It also gave a TGI [48] of over 10 µM, a TGI [49] of over 10 µM and a TGI [50] of over 10 µM. It also gave a TGI [51] of over 10 µM, a TGI [53] of over 10 µM and a TGI [54] of over 10 µM. It also gave a TGI [55] of over 10 µM, a TGI [56] of over 10 µM and a TGI [57] of over 10 µM.
